Structures are written as SMILES. Read-outs that look alike come from different tables or passages of the source.

By Vd/F is commonly meant the apparent distribution volume after extravascular dosing.

Series [1] in a line: Single dose, randomized fed vs. fasted study of the effect of food on bioavailability (pharmacokinetics). Format: in vivo, healthy subjects. The note with it: for Relative bioavailability, AUC (tf) Ratio Estimate / Relative bioavailability, AUC(l) Ratio Estimate / Relative bioavailability, Cmax Ratio Estimate: fed vs fasted; for increase of Cmax relative to fasted state / increase of mean AUCs relative to fasted state: based on ratio estimates; for half-life: read-out: t½ (mean) (converted). As for the experimental part:
A single dose, randomized, two-treatment (fed vs. fasted) study was conducted to assess the effect of food on bioavailability of a compound of the present invention (SCH 503034 or Compound Ia). A single oral dose of 600 mg. of compound of Formula Ia was administered to two groups of healthy subjects. Group A received the dose after an overnight 10-hour fast; Group B received the dose about twenty minutes after consuming a high fat breakfast of 850 calories having 53.8 g fat (57% of calories from fat) or low fat breakfast of 451 calories. Blood samples were collected immediately prior to dosing (time zero) and at times 0.5, 1, 1.5, 2, 2.5, 3, 4, 6, 8, 12, 24, 36, 48, and 72 hours post dose. Results of measurement of mean maximum concentration (Cmax) of compound of Formula Ia in serum in ng/ml are shown in Table 1 and FIG. 1 (graph of mean plasma concentration of the compound versus Time). Calculations of AUC(tf) (area under the curve at time final), AUC(I) (area under the curve extrapolated to infinity), t½ (time at which one-half of the compound has disappeared from the blood), Tmax (time at which maximum serum concentration is achieved), CL/F (clearance divided by bioavailability), and Vd/F (volume of distribution divided by bioavailability) are made according to standard formulas known to one skilled in the art of drug metabolism and pharmacokintics.

Series [2] is described as follows: Serum levels after two weeks of 400 mg bid or tid dosing. Format: in vivo, healthy subjects. The settings on record: 400 mg tid for two weeks; day 14. As for the experimental part: Healthy subjects were dosed with two regimens of 400 mg. of a compound of Formula 1a, twice per day (bid) or three times per day (tid) for a period of two weeks. Blood samples were taken on day 14 in the morning at time zero (pre-dose) and at 12 hours post-dose (for the bid regimen) or 8 hours post-dose (for the tid regimen). As shown in the box plots, with tid dosing a metabolism effect is observed. Serum levels of the drug are higher at time zero, 8 hours after the previous evening dose, as compared to serum levels of the drug when measured 8 hours following the morning dose.

Setting [3] is: human, serum, po, 600 mg, single oral dose 600 mg, fasted, balanced data.
[4] abbreviates: human, serum, po, 600 mg, single oral dose 600 mg, fed (high fat diet), balanced data.
Where [5] appears, read: human, serum, po, 600 mg, single oral dose 600 mg, fed (non fat diet), balanced data.

Turning to `CC(C)(C)NC(=O)N[C@H](C(=O)N1C[C@H]2[C@@H]([C@H]1C(=O)NC(CC1CCC1)C(=O)C(N)=O)C2(C)C)C(C)(C)C` (mixture of isomers) [SCH 503034], the “Relative bioavailability, AUC (tf) Ratio Estimate” value is listed as 317% in series [1] (compare B/A, balanced data) and 182% in series [1] (compare C/A, balanced data). The “Relative bioavailability, AUC(l) Ratio Estimate” value is 276% in series [1] (compare B/A, balanced data) and 167% in series [1] (compare C/A, balanced data). Further, the “Relative bioavailability, Cmax Ratio Estimate” value in series [1] (compare B/A, balanced data) is on record as 223%; in series [1] (compare C/A, balanced data), 129%. The absorption lag time in series [1] (fed state with high fat diet, in 8 of the 12 subjects who completed all three periods) came out at 0.5 h; in series [1] (fed state with non fat diet, 7 subjects), 0.5 h. In addition, the figures for the “increase of Cmax relative to fasted state” value in series [1] (high fat diet) and in series [1] (non fat diet) were 123% and 29%, respectively. Moreover, the “increase of mean AUCs relative to fasted state” value in series [1] (high fat diet) was “over 200%”; in series [1] (non fat diet), “about 100%”. Besides, the Cmax was 502 ng/mL in series [1] (setting [3]), 1150 ng/mL in series [1] (setting [4]) and 639 ng/mL in series [1] (setting [5]). Further, the Vd/F stood at 4580 L in series [1] (setting [3]), 418 L in series [1] (setting [4]) and 1140 L in series [1] (setting [5]). Moreover, the AUC in series [1] (human, serum, po, 600 mg, single oral dose 600 mg, fasted, balanced data, read-out: AUC(l) (mean)) was 1630 ng·h/mL; in series [1] (human, serum, po, 600 mg, single oral dose 600 mg, fasted, balanced data, read-out: AUC(tf) (mean)), 1560 ng·h/mL; in series [1] (human, serum, po, 600 mg, single oral dose 600 mg, fed (high fat diet), balanced data, read-out: AUC(l) (mean)) it was 4440 ng·h/mL; in series [1] (human, serum, po, 600 mg, single oral dose 600 mg, fed (high fat diet), balanced data, read-out: AUC(tf) (mean)) it was 5090 ng·h/mL; in series [1] (human, serum, po, 600 mg, single oral dose 600 mg, fed (non fat diet), balanced data, read-out: AUC(l) (mean)), 2750 ng·h/mL; in series [1] (human, serum, po, 600 mg, single oral dose 600 mg, fed (non fat diet), balanced data, read-out: AUC(tf) (mean)), 3040 ng·h/mL. Also, in series [1] (human, serum, po, 600 mg, single oral dose 600 mg, fasted, balanced data, read-out: Tmax, median (range)), the Tmax turned out to be 1.5 h. Further, the half-life in series [1] (setting [3]) is 457 min; in series [1] (setting [4]), 121 min; in series [1] (setting [5]), 192 min. For the same molecule, the “CL/F (mean)” value in series [1] (single oral dose 600 mg, fasted, balanced data) turned out to be 407 L/h; in series [1] (single oral dose 600 mg, fed (high fat diet), balanced data), 144.0 L/h; in series [1] (single oral dose 600 mg, fed (non fat diet), balanced data) it was 243 L/h. In series [1] (single oral dose 600 mg, fed state), the “rate of absorption in the fed state (vs fasted)” value was “more slowly”.

As to `CC(C)(C)NC(=O)N[C@H](C(=O)N1C[C@H]2[C@@H]([C@H]1C(=O)NC(CC1CCC1)C(=O)C(N)=O)C2(C)C)C(C)(C)C` (stereo partly drawn) [compound of Formula 1a, (1R,5S)-N-[3-Amino-1-(Cyclobutylmethyl)-2,3-Dioxopropyl]-3-[2(S)-[[[(1,1-Dimethylethyl)Amino]Carbonyl]Amino]-3,3-Dimethyl-1-Oxobutyl]-6,6-Dimethyl-3-Azabicyclo[3.1.0]Hexan-2(S)-Carboxamide], the “serum levels at time zero (8 hours after the previous evening dose) compared to 8 hours following the morning dose” value in series [2] is on record as “higher”.

These data come from patent US8119602B2, “Administration of HCV protease inhibitors in combination with food to improve bioavailability” (Schering Corporation, priority 2005, dated 2012).
